Measured values reported in PubChem BioAssay AID1919009 (Molecular Pharmacology Branch, DTP, NCI, 2023).

System: K24384-001-R-PDC complex spheroid growth
Assay: Anticancer human tumor K24384-001-R-PDC patient-derived pancreatic adenocarcinoma cell line growth inhibition [AhR]
Settings: for IC50: curve of first compound; for viability, T/C: stronger effect = lower value
Procedure, shortened: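 Spheroids combined tumor cells with HUVEC endothelial cells and human MSCs as stroma. AhR antagonists were paired with standard or investigational drugs, each dosed in half-log steps down from near clinical Cmax, or from 10 microM where Cmax was unknown.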
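Wherever viability, T/C is given: percent of DMSO vehicle-treated spheroid viability set as 100%.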

**Q.** With `COc1cccc2c1C(=O)c1c(O)c3c(c(O)c1C2=O)CC(O)(C(=O)CO)CC3OC1CC(N)C(O)C(C)O1` (stereo not given) + Cc1ccccc1N=Nc1ccc(NC(=O)c2ccnn2C)c(C)c1 as the molecule, how does the IC50 (second compound 0.1 µM) read?
**A.** 68.9 nM

**Q.** What about the IC50 (second compound 0.316 µM) of the same molecule?
**A.** 54.7 nM

**Q.** What about the IC50 (second compound 1 µM) of the same molecule?
**A.** < 31.6 nM

**Q.** And the IC50 (second compound 3.16 µM)?
**A.** < 31.6 nM

**Q.** And the IC50 (second compound 10 µM)?
**A.** 50.4 nM

**Q.** And the viability, T/C (second compound 0.1 µM, first compound 0.0316 µM)?
**A.** 57.9%

**Q.** And the viability, T/C (second compound 0.1 µM, first compound 0.1 µM)?
**A.** 45.7%

**Q.** And the viability, T/C (second compound 0.1 µM, first compound 0.316 µM)?
**A.** 22.5%

**Q.** And the viability, T/C (second compound 0.1 µM, first compound 1 µM)?
**A.** 7.05%

**Q.** And the viability, T/C (second compound 0.1 µM, first compound 3.16 µM)?
**A.** 3.16%

**Q.** And the viability, T/C (second compound 0.1 µM, first compound 10 µM)?
**A.** 7.56%

**Q.** What about the viability, T/C (second compound 0.316 µM, first compound 0.0316 µM) of the same molecule?
**A.** 53.7%

**Q.** What about the viability, T/C (second compound 0.316 µM, first compound 0.1 µM) of the same molecule?
**A.** 46%

**Q.** And the viability, T/C (second compound 0.316 µM, first compound 0.316 µM)?
**A.** 19%

**Q.** What about the viability, T/C (second compound 0.316 µM, first compound 1 µM) of the same molecule?
**A.** 8.11%

**Q.** And the viability, T/C (second compound 0.316 µM, first compound 3.16 µM)?
**A.** 2.84%

**Q.** And the viability, T/C (second compound 0.316 µM, first compound 10 µM)?
**A.** 8.04%

**Q.** What about the viability, T/C (second compound 1 µM, first compound 0.0316 µM) of the same molecule?
**A.** 42%

**Q.** And the viability, T/C (second compound 1 µM, first compound 0.1 µM)?
**A.** 42%

**Q.** And the viability, T/C (second compound 1 µM, first compound 0.316 µM)?
**A.** 12.8%

**Q.** And the viability, T/C (second compound 1 µM, first compound 1 µM)?
**A.** 7.59%

**Q.** And the viability, T/C (second compound 1 µM, first compound 3.16 µM)?
**A.** 2.46%

**Q.** What about the viability, T/C (second compound 1 µM, first compound 10 µM) of the same molecule?
**A.** 8.88%

**Q.** What about the viability, T/C (second compound 3.16 µM, first compound 0.0316 µM) of the same molecule?
**A.** 47.6%

**Q.** And the viability, T/C (second compound 3.16 µM, first compound 0.1 µM)?
**A.** 40.1%

**Q.** And the viability, T/C (second compound 3.16 µM, first compound 0.316 µM)?
**A.** 14.3%

**Q.** And the viability, T/C (second compound 3.16 µM, first compound 1 µM)?
**A.** 2.98%

**Q.** What about the viability, T/C (second compound 3.16 µM, first compound 3.16 µM) of the same molecule?
**A.** 6.7%

**Q.** What about the viability, T/C (second compound 3.16 µM, first compound 10 µM) of the same molecule?
**A.** 6.51%

**Q.** And the viability, T/C (second compound 10 µM, first compound 0.0316 µM)?
**A.** 55.9%

**Q.** What about the viability, T/C (second compound 10 µM, first compound 0.1 µM) of the same molecule?
**A.** 41.3%

**Q.** And the viability, T/C (second compound 10 µM, first compound 0.316 µM)?
**A.** 9.04%

**Q.** What about the viability, T/C (second compound 10 µM, first compound 1 µM) of the same molecule?
**A.** 8.14%

**Q.** And the viability, T/C (second compound 10 µM, first compound 3.16 µM)?
**A.** 3.61%

**Q.** And the viability, T/C (second compound 10 µM, first compound 10 µM)?
**A.** 9.36%

**Q.** What does the source list for `O=C(C=Cn1cnc(-c2cc(C(F)(F)F)cc(C(F)(F)F)c2)n1)NNc1cnccn1` + Cc1ccccc1N=Nc1ccc(NC(=O)c2ccnn2C)c(C)c1?
**A.** IC50 (second compound 0.1 µM): 238 nM; IC50 (second compound 0.316 µM): 144 nM; IC50 (second compound 1 µM): 158 nM; IC50 (second compound 3.16 µM): 149 nM; IC50 (second compound 10 µM): 132 nM; viability, T/C (second compound 0.1 µM, first compound 0.00949 µM): 101%; viability, T/C (second compound 0.1 µM, first compound 0.03 µM): 104%; viability, T/C (second compound 0.1 µM, first compound 0.0949 µM): 68.2%; viability, T/C (second compound 0.1 µM, first compound 0.3 µM): 47.9%; viability, T/C (second compound 0.1 µM, first compound 0.949 µM): 27.1%; viability, T/C (second compound 0.1 µM, first compound 3 µM): 22.9%; viability, T/C (second compound 0.316 µM, first compound 0.00949 µM): 88%; viability, T/C (second compound 0.316 µM, first compound 0.03 µM): 106%; viability, T/C (second compound 0.316 µM, first compound 0.0949 µM): 62.3%; viability, T/C (second compound 0.316 µM, first compound 0.3 µM): 32.6%; viability, T/C (second compound 0.316 µM, first compound 0.949 µM): 30.2%; viability, T/C (second compound 0.316 µM, first compound 3 µM): 22.1%; viability, T/C (second compound 1 µM, first compound 0.00949 µM): 97.4%; viability, T/C (second compound 1 µM, first compound 0.03 µM): 89%; viability, T/C (second compound 1 µM, first compound 0.0949 µM): 62.3%; viability, T/C (second compound 1 µM, first compound 0.3 µM): 34.2%; viability, T/C (second compound 1 µM, first compound 0.949 µM): 26.5%; viability, T/C (second compound 1 µM, first compound 3 µM): 23%; viability, T/C (second compound 3.16 µM, first compound 0.00949 µM): 76.9%; viability, T/C (second compound 3.16 µM, first compound 0.03 µM): 77.6%; viability, T/C (second compound 3.16 µM, first compound 0.0949 µM): 59.3%; viability, T/C (second compound 3.16 µM, first compound 0.3 µM): 34%; viability, T/C (second compound 3.16 µM, first compound 0.949 µM): 27.9%; viability, T/C (second compound 3.16 µM, first compound 3 µM): 19.7%; viability, T/C (second compound 10 µM, first compound 0.00949 µM): 86.3%; viability, T/C (second compound 10 µM, first compound 0.03 µM): 79.4%; viability, T/C (second compound 10 µM, first compound 0.0949 µM): 57.5%; viability, T/C (second compound 10 µM, first compound 0.3 µM): 31.4%; viability, T/C (second compound 10 µM, first compound 0.949 µM): 32.9%; viability, T/C (second compound 10 µM, first compound 3 µM): 25.8%
